Results from patent US7741529B1, “Transgenic animal model for catecholaminergic polymorphic ventricular tachycardia (CPVT) and use thereof” (priority 2006, dated 2010).
Marks after values point to notes of the source that are not given here.

Tests used:
Type in all cases: in vivo, mouse
RyR2^+/RyR^R4496C mice [1] = test: ECG radiotelemetry: effect of propranolol on RR and QT interval in RyR2+/RyRR4496C mice
Procedure: The cardiac activity in transgenic animals is preferably measured by continuous ECG monitoring. ECG radiotelemetry monitors (Data Sciences International) are typically implanted intraabdominally under general anaesthesia. After recovery from surgery the electrocardiographic signal is recorded continuously in conscious animal kept in special cages provided with receivers and connected to a A/D converted an a PC for data storage. Off-line analyses of stored ECGs parameters comprise: quantification of arrhythmias, heart rate trends, heart rate variability assessment (power spectrum analysis), QT interval and T wave assessments. Other parameters of cardiac functionality measurable by ECG are the following: baseline QT interval (measured using the tangent method^23), RR interval, RR variability.
(§1) ECG radiotelemetry monitors (Data Sciences International) were implanted intraabdominally under general anaesthesia (Avertin […]). Body temperature was maintained at 37° C. by use of a thermally controlled heating pad (Harvard Apparatus). ECG was continuously monitored starting 48 h after surgery. After 72 hours of recovery from surgery phenotype characterization was performed.
(§2) One group (Group 1) of animals exercised on a treadmill until exhaustion. The animals were then injected with epinephrine 2 mg/kg i.p. (WT n=12, RyR2^+/RyR^R4496C n=14). A second group of animals (Group 2) was injected with epinephrine (2 mg/kg ip) and caffeine (120 mg/kg i.p.) (WT, n=8, RyR2^+/RyR^R4496C, n=7). ECG monitoring was performed continuously during both exercise and drug testing protocols. Five additional RyR2^+/RyR^R4496C animals were treated for 24 hours with propranolol i.p. (2 mg/Kg) every 12 hours before being exposed to the epinephrine and caffeine protocol.
(§3) Five RyR2^+/RyR^R4496C mice were treated with propranolol to evaluate if antiadrenergic compounds could prevent induction of arrhythmias. After drug administration we observed a prolongation of RR interval from 94.5±13 to 118±13 msec […] (p<0.001). […] Despite pretreatment with betablockers, the administration of caffeine and epinephrine elicited VTsust in 2 and VF in 2 (sustained arrhythmias in 4 mice); only one mouse had no arrhythmias (p=0.56; i.e. non significant versus RyR2+/RyR^R4496C mice).

WT mice = test: ECG radiotelemetry: effect of betablockers on RR interval in WT mice
RyR2^+/RyR^R4496C mice [2] = test: Epinephrine and caffeine arrhythmia induction after propranolol pretreatment (continuous ECG monitoring)
Procedure: Arrhythmias were defined as follows: non sustained ventricular tachycardia (VTns) was defined as a series of 4 to 10 consecutive repetitive ventricular ectopic beats (VEBs), sustained VT (VTsust) was defined as a run of >10 consecutive VEBs, ventricular fibrillation (VF) was defined as a VTsust degenerating into ventricular fibrillation leading to sudden death.
as §1, §2
Among the RyR2^+/RyR^R4496C mice 4/8 or 50% developed sustained arrhythmias (VTsust n=2; FIG. 4 panel B and VF n=2; FIG. 5 panel B p=0.02 versus WT; Table I).
as §3

[3] = 5 pretreated mice, epinephrine 2 mg/kg i.p. and caffeine 120 mg/kg i.p.
[4] = Group 2, N=5, epinephrine and caffeine i.p.

For `CC(C)NCC(O)COc1cccc2ccccc12` (stereo not shown) [propranolol], the “Baseline RR” value (RyR2^+/RyR^R4496C mice [1]; Group 2, N=5, beta blockade, p=0.0001 vs untreated RyR2^+/RyR^R4496C) was 121 + 23*, the “Baseline QT” value (RyR2^+/RyR^R4496C mice [1]; Group 2, N=5, beta blockade, tangent method, ANOVA P=0.966) was 23 + 0.2§ and the “RR interval (in words)” value (RyR2^+/RyR^R4496C mice [1]; RyR2^+/RyR^R4496C animals pretreated with betablockers, Group 2) was “significantly prolonged”. The “mean prolongation of RR interval” value (RyR2^+/RyR^R4496C mice [1]; RyR2^+/RyR^R4496C mice after betablockers, p=0.69 vs WT) was 23.62 ± 0.14 ms, the “percentage of RR change after betablockers (Δ%=ΔRR*100/RR baseline)” value (RyR2^+/RyR^R4496C mice [1]; RyR2^+/RyR^R4496C mice, p=0.52 vs WT) was 25±3% and the “RR interval after drug administration” value (RyR2^+/RyR^R4496C mice [1]; five RyR2^+/RyR^R4496C mice, propranolol i.p. 2 mg/Kg every 12 hours for 24 hours, prolongation from 94.5±13, p<0.001) was 118 ± 13 ms. The “percentage of RR change after betablockers (Δ%=ΔRR*100/RR baseline)” value (WT mice; WT mice) was 27±5%, the “mean prolongation of RR interval” value (WT mice; WT mice after betablockers) was 22.92 ± 3.6 ms and the “number of mice with VF” value (RyR2^+/RyR^R4496C mice [2]; [3]) was 2. For the same molecule, the “number of mice with VTsust” value (RyR2^+/RyR^R4496C mice [2]; [3]) was 2, the “number of mice with no arrhythmias” value (RyR2^+/RyR^R4496C mice [2]; 5 pretreated mice, epinephrine and caffeine) was “one” and the “sustained arrhythmias (number of mice)” value (RyR2^+/RyR^R4496C mice [2]; 5 pretreated mice, epinephrine and caffeine, p=0.56 versus untreated RyR2+/RyR^R4496C mice) was 4 mice. The “All VT/VF (sum of animals experiencing VTns or VTsust or VF)” value (RyR2^+/RyR^R4496C mice [2]; [4]) was 4, the “VTns (number of animals)” value (RyR2^+/RyR^R4496C mice [2]; [4]) was 0 and the “VTsust & VF (number of animals)” value (RyR2^+/RyR^R4496C mice [2]; [4]) was 4. The “prevention of arrhythmias (in words)” value (RyR2^+/RyR^R4496C mice [2]; RyR2^+/RyR^R4496C mice) was “not effective in preventing arrhythmias”.
